Results on 8 compounds are retold here after US20250034106A1, “3-CYCLOAMINO-INDOLE COMPOUNDS AS SEROTONERGIC AGENTS USEFUL FOR THE TREATMENT OF DISORDERS RELATED THERETO” (Mindset Pharma Inc., priority 2021, published 2025).

Where two headings read alike, the source gives them in different places. A value given as a limit tells only on which side of the number the result lay.

For assay [1], the target named is T1, human 5-HT2A (Homo sapiens (Human), UniProt P28223). In words: Human 5-HT2A radioligand binding assay ([3H]-ketanserin). To be noted: competition with [3H]-ketanserin; read-out: h5-HT2A IC50.
The target of assay [2] is human 5-HT2A (h5-HT2A) receptor (Homo sapiens (Human), UniProt P28223). Description: FLIPR assay, human 5-HT2A, agonist mode. The settings on record: FLIPR calcium assay. The format is cell-based. As to the method: 4. […] Vortexed vigorously for 1-2 minutes.
8. 3×compound in assay buffer was prepared: a. Reference compounds were diluted to required concentration with DMSO. […] Serial dilutions were performed; c.
ii. Calculated the percentage activation by using following equation:
% Activation=(RFU compound−RFU low control)/(RFU top concentration of reference agonist−RFU low control)×100%

The conditions of assay [3]: DMT and 5-MeO-DMT consumed parenterally; cited from earlier work.
In assay [4] the target is T1, human 5-HT2A. The settings on record: cited from earlier work.
For assay [5] the following is noted: cited from earlier work.

Turning to `[2H]c1[nH]c2c([2H])c([2H])c([2H])c([2H])c2c1C1CCNCC1` [Compound 1-1, 3-(piperidin-4-yl)-1H-indole-2,4,5,6,7-d5], on human 5-HT2A [1], the IC50 lay in the range of 0.5 to 10 µM. Moreover, in assay [2], the EC50 is 1 to 10 µM. For the compound `[2H]c1[nH]c2c([2H])c([2H])c([2H])c([2H])c2c1C1CCN(C)C1` (stereo not drawn) [Compound 1-32, 3-(1-Methylpyrrolidin-3-yl)-1H-indole-2,4,5,6,7-d5], the IC50 on human 5-HT2A [1] is under 0.5 µM. Also, the concentration giving a half-maximal response (EC50) in assay [2] is over 10 µM. On to `[2H]c1[nH]c2c([2H])c([2H])c([2H])c([2H])c2c1C1CC([2H])([2H])N(C)C1([2H])[2H]` (stereo not drawn) [Compound 1-44, 3-(1-Methylpyrrolidin-3-yl-2,2,5,5-d4)-1H-indole-2,4,5,6,7-d5], for which, on human 5-HT2A [1], the half-maximal inhibitory concentration (IC50) is under 0.5 µM. For the same compound, in assay [2], the EC50 was over 10 µM.

Regarding `[2H]C([2H])([2H])N1CCC(c2c[nH]c3ccccc23)C1` (stereo not drawn) [Compound 1-48], the half-maximal inhibitory concentration (IC50) on human 5-HT2A [1] lay within 0.5 to 10 µM.

Turning to `[2H]C1([2H])CC(c2c[nH]c3ccc(OC)cc23)C([2H])([2H])N1C` (stereo not drawn) [Compound 1-54, 5-Methoxy-3-(1-methylpyrrolidin-3-yl-2,2,5,5-d4)-1H-indole], at human 5-HT2A [1], the IC50 lay in the range of 0.5 to 10 µM. Take `COc1ccc2[nH]cc(CCN(C)C)c2c1` [Compound 5-MeO-DMT, 5-methoxy-N,N-dimethyltryptamine]: the “duration of action / effects” value in assay [3] is on record as “less than 1 h”. Turning to `CN(C)CCc1c[nH]c2ccccc12` [DMT, N,N-dimethyltryptamine], the IC50 at human 5-HT2A [1] is under 0.5 µM. Also, the “binding affinity 5-HT2A” value on human 5-HT2A [4] is recorded as 0.237 µM. In assay [3], the “duration of action / effects” value is reported as “less than 1 h”. `CN(C)CCc1c[nH]c2cccc(OP(=O)(O)O)c12` [psilocybin, 4-phosphoryloxy-N,N-dimethyltrypatmine]: the “duration of action / effects” value in assay [3] was 5 to 8 h. The abstinence rate is recorded as 67% in assay [5] (12 months follow-up) and 80% in assay [5] (six months follow-up).
